For assay [1], the target named is δ receptor (Rattus norvegicus, UniProt P33533). Conditions: cited from earlier work.
Assay [2] deals with T1, human μ opioid receptor (Homo sapiens, UniProt P35372).
T1 construct: expressed in transfected cells; host or cells: CHO cells (membranes)
The assay can be described thus: biochemical. It is filed as binding.

In assay [3] the target is T2, human κ opioid receptor (Homo sapiens, UniProt P41145).
T2 construct: expressed in transfected cells; host or cells: CHO cells (membranes)
The experiment in a line: biochemical. The assay is classed as binding.

Assay [4] deals with T1, human μ opioid receptor. The experiment in a line: biochemical.
In assay [5] the target is T2, human κ opioid receptor. The assay can be described thus: [35S]GTPγS functional assay, hKOR-CHO membranes. To be noted: CHO cell membranes, n/e=no effect. It is filed as biochemical.
The subject of assay [6] is Male, Swiss-Webster mice. The experiment in a line: Hot plate antinociceptive testing (acute, antagonist and tolerance paradigms). To be noted: for Antinociceptive tolerance development vs. Day 1, hot plate: 15 mg/kg s.c. twice daily for five days, latencies 30 min after administration; for ED50: Mus musculus, sc; for Effect of antagonist pretreatment on UMB 425 antinociception, hot plate: naloxone 1 mg/kg i.p. −30 min or nor-BNI 30 mg/kg i.p. −24 h before UMB 425 15 mg/kg s.c., 30 min. The assay is classed as in vivo.

Assay [7] deals with Male, Swiss-Webster mice. The experiment in a line: Tail-flick antinociceptive testing (acute, antagonist and tolerance paradigms). It is filed as in vivo. Conditions: for Antinociceptive tolerance development vs. Day 1, tail-flick: 15 mg/kg s.c. twice daily for five days, latencies 30 min after administration; for ED50: Mus musculus, sc; for Effect of antagonist pretreatment on UMB 425 antinociception, tail-flick: naloxone 1 mg/kg i.p. −30 min or nor-BNI 30 mg/kg i.p. −24 h before UMB 425 15 mg/kg s.c., 30 min.

Assay [8] deals with T3, human δ opioid receptor (Homo sapiens, UniProt P41143). The assay can be described thus: Opioid receptor binding, [3H]DPDPE competition in hDOR-CHO membranes. Further details: expressed in transfected cells; host or cells: CHO cells (membranes).
Assay [9] has as its target T3, human δ opioid receptor. The assay can be described thus: [35S]GTPγS functional assay, hDOR-CHO membranes (agonism; antagonism of DPDPE, Schild plot). The assay is classed as biochemical. Further details: expressed in transfected cells; host or cells: CHO cells (membranes).
Assay [10] deals with T3, human δ opioid receptor. To be noted: ref (32); cited from earlier work.
Where [11] appears, read: 0.5 h, read-out: ED50 Hot Plate, acute treatment paradigm.
Where [12] appears, read: read-out: ED50 Hot Plate, Tolerance.
Setting [13] is: acute vs. tolerance treatment paradigms.
Setting [14] is: 0.5 h, read-out: ED50 Tail-Flick, acute treatment paradigm.
Setting [15] is: read-out: ED50 Tail-Flick, Tolerance.

T2 sequence (P41145 whole entry): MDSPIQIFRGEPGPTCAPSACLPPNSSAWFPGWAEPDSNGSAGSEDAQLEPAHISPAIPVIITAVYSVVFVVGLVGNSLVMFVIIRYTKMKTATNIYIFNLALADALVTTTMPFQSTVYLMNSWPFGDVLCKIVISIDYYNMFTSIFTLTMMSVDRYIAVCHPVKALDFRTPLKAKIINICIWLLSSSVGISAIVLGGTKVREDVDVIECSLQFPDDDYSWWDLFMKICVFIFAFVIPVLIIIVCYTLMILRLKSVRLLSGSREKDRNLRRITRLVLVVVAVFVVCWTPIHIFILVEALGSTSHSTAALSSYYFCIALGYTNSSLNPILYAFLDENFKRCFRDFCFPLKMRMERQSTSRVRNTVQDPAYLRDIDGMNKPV
T3 sequence (P41143 whole entry): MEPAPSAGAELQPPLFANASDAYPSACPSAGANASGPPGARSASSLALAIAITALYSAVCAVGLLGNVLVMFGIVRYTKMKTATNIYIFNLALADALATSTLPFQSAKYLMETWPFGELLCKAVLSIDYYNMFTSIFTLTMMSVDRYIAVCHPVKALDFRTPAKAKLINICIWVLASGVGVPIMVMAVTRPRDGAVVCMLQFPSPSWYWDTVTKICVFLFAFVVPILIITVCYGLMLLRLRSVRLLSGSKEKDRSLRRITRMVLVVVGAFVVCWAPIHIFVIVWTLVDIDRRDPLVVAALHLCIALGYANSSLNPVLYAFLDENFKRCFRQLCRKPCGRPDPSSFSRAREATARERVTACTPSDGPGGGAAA
Sequence of δ receptor (P33533 whole entry): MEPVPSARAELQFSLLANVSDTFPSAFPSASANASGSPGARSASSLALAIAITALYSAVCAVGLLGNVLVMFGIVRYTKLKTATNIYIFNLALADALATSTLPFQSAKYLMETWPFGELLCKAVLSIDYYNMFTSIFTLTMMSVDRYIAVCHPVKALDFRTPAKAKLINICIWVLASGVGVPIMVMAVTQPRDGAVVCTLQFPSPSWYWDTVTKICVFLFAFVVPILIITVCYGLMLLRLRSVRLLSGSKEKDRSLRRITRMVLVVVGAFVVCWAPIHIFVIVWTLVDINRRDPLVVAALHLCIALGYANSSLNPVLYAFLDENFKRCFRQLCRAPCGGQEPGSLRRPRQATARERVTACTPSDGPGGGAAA
T1 sequence (P35372 whole entry): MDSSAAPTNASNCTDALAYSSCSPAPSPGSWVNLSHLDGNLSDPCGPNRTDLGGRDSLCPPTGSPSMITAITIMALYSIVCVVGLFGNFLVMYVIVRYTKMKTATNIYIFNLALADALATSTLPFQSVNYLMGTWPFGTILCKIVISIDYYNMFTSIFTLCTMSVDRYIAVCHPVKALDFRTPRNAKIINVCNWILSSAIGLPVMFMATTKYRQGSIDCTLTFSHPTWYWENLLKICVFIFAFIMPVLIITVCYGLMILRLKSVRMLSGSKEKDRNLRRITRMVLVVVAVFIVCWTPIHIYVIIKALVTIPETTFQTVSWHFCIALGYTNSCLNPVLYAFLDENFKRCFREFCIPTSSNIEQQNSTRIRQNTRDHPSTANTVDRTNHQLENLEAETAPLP

With `CN1CC[C@]23c4c5ccc(O)c4O[C@H]2C(=O)C2(Cc4ccccc4C2)C[C@@]3(O)[C@H]1C5` [SIOM, 7-spiroindanyloxymorphone], the “Relative % Emax Experimental” value in [1] is reported as 0.18.
With `CN1CC[C@]23c4c5ccc(O)c4O[C@H]2c2[nH]c4ccccc4c2C[C@@]3(O)[C@H]1C5` [Oxymorphindole], the “Relative % Emax Experimental” value in assay [1] is listed as 0.12.
In the case of `CN1CCC23c4c5ccc(O)c4OC2(CO)C(=O)CCC3(O)C1C5` (stereo not drawn) [UMB 425, 4a,9-dihydroxy-7a-(hydroxymethyl)-3-methyl-2,3,4,4a,5,6-hexahydro-1H-4,12-methanobenzofuro[3,2-e]isoquinolin-7(7aH)-one], the Ki turned out to be 3.2 ± 0.14 nM in assay [2], 212 ± 21 nM in [3] and 208 ± 18 nM in [8]. Also, in [3], the “κ/μ binding affinity ratio” value is 66. For the same compound, the “% Emax μ” value in [4] turned out to be 73±7.3%. In assay [4], this compound registered an EC50 of 35 ± 3.7 nM. Besides, the Emax in [4] (read-out: % Emax ± S.E.M. μ) came out at 73 ± 7.3%. Further, the “EC50 ± S.E.M. κ (agonist activity)” value in assay [5] was “no significant agonist activity and n/e”. Further, the “Antinociceptive tolerance development vs. Day 1, hot plate” value in assay [6] was “significantly decreased antinociceptive activity on Day 4 and 5”. Moreover, the “Antinociceptive activity compared with morphine in tolerance paradigm, hot plate” value in assay [6] (Day 4 and 5, 15 mg/kg s.c. twice daily) is listed as “statistically greater antinociceptive activity than morphine”. Besides, the ED50 turned out to be 4.3 mg/kg in [6] (setting [11]), 13 mg/kg in assay [6] (setting [12]), 8.83 mg/kg in assay [7] (setting [14]) and 11.6 mg/kg in [7] (setting [15]). Further, the “Shift in ED50, Hot Plate” value in assay [6] (setting [13]) was 3.0 fold. For the same compound, the “Reduction in ED50 shift compared to morphine, hot plate” value in assay [6] (tolerance paradigm) is given as 2.6 fold. Moreover, the “Antinociceptive tolerance development vs. Day 1, tail-flick” value in [7] was “n.s”. The “Antinociceptive activity compared with morphine in tolerance paradigm, tail-flick” value in assay [7] (Day 5, 15 mg/kg s.c. twice daily) is on record as “statistically greater antinociceptive activity than morphine”. The “Shift in ED50, Tail-Flick” value in assay [7] (setting [13]) is 1.3 fold. Also, in assay [7] (tolerance paradigm), the “Reduction in ED50 shift compared to morphine, tail-flick” value amounted to 4.9 fold. Moreover, the “δ/μ binding affinity ratio” value in [8] (ratio of Ki values) came out at 65. The Kb in [9] is 759 nM. In [9] (Schild plot, DPDPE dose-response curves with 200 nM, 600 nM, 2 μM UMB 425), the “pA2 δ” value amounted to 6.12. In addition, the “EC50 ± S.E.M. δ (agonist activity)” value in [9] ([35S]GTPγS, CHO cell membranes, n/e=no effect) is “no significant agonist activity and n/e”.
Consider `Oc1ccc2c3c1O[C@H]1c4[nH]c5c(c4C[C@@]4(O)[C@@H](C2)N(CC2CC2)CC[C@]314)C[C@@]1(O)[C@H]2Cc3ccc(O)c4c3[C@@]1(CCN2CC1CC1)[C@H]5O4` [nor-BNI, norbinaltorphimine, reference compound], for which the “Effect of antagonist pretreatment on UMB 425 antinociception, hot plate” value in assay [6] is “failed to significantly attenuate UMB 425-mediated antinociception”. Besides, in [7], the “Effect of antagonist pretreatment on UMB 425 antinociception, tail-flick” value is “failed to significantly attenuate UMB 425-mediated antinociception”.
Regarding `O=C1/C(=C/c2ccccc2)C[C@@]2(O)[C@H]3Cc4ccc(O)c5c4[C@@]2(CCN3CC2CC2)[C@H]1O5` [(E)-BNTX, (E)-benzylidenenaltrexone], the “Relative % Emax Experimental” value in assay [1] is on record as 0.00.
For the compound `CN1CC[C@]23c4c5ccc(O)c4O[C@H]2[C@@H](O)C=C[C@H]3[C@H]1C5` [Morphine, reference compound], in [6], the “Antinociceptive tolerance development vs. Day 1, hot plate” value was “significantly decreased antinociceptive activity on Day 4 and 5”. For the same compound, the ED50 was 2.73 mg/kg in assay [6] (setting [11]), 21.3 mg/kg in assay [6] (setting [12]), 6.85 mg/kg in assay [7] (setting [14]) and 44.1 mg/kg in assay [7] (setting [15]). For the same compound, in [7], the “Antinociceptive tolerance development vs. Day 1, tail-flick” value was “significantly decreased antinociceptive activity on Day 4 and 5”.
In the case of `C=CCN1CC[C@]23c4c5ccc(O)c4O[C@H]2C(=O)CC[C@@]3(O)[C@H]1C5` [naloxone, reference compound], in [6], the “Effect of antagonist pretreatment on UMB 425 antinociception, hot plate” value is given as “significantly attenuated UMB 425-mediated antinociception”. In addition, the “Effect of antagonist pretreatment on UMB 425 antinociception, tail-flick” value in [7] is reported as “significantly attenuated UMB 425-mediated antinociception”.
Turning to `Oc1ccc2c3c1O[C@H]1c4[nH]c5ccccc5c4C[C@@]4(O)[C@@H](C2)N(CC2CC2)CC[C@]314` [Naltrindole], in [1], the “Relative % Emax Experimental” value was 0.00. In addition, the “pA2 δ (literature)” value in assay [10] was 10.92.

Source of the values: patent publication US9422302B2 (priority 2013, dated 2016).
